Laboratory results as given in patent EP0940081A1, “Combinations of active agents and disinfectants, preservatives and antiseptics containing same” (Bode Chemie GmbH & Co., priority 1998, dated 1999).
Like-named read-outs stand apart in the source and are kept apart here.

How the values were obtained:
[1] = system: Candida albicans ATCC 10231; assay: Röhrchenverdünnungstest, fungistatic activity; type: cell-based; set-up: key: +: Wachstum; -: kein Wachstum; settings: 72 h bei 37 °C
Experimental: (§1) Methodik der Prüfung auf bakteriostatische und fungistatische Wirksamkeit im Röhrchenverdünnungtest: In sterile Reagenzröhrchen werden je 5 ml der Verdünnungen der Prüfsubstanzen in Wasser standardisierter Härte mit 5 ml doppelt konzentrierter Caseinpepton-Sojamehl-Pepton-Lösung (CSL) vermischt. Zur Bestimmung der bakteriostatischen Wirkung werden die Röhrchen durch Zugabe von 0,1 ml einer 1 : 10 mit CSL verdünnten, 24 h bei 37 °C bebrüteten CSL-Kultur beimpft. Zur Prüfung der fungistatischen Wirkung werden je 0,1 ml einer unverdünnten, 72 h bei 37 °C bebrüteten CSL-Kultur von Candida albicans verwendet. Die Auswertung erfolgt nach einer Bebrütung von 72 h bei 37 °C. Es erfolgte außerdem eine Nachbeimpfung von CSA-Platten durch Ausstreichen der ? 72 h-Testlösungen", um das Wachstum der Testkeime zu beurteilen. Folgende Testkeime wurden eingesetzt: Sa: Staphylococcus aureus ATCC 6538 Ef: Enterococcus faecium ATCC 6057 Ec: Escherichia coli ATCC 11229 Pm: Proteus mirabilis ATCC 14153 Pa: Pseudomonas aeruginosa ATCC 15442 Ca: Candida albicans ATCC 10231

[2] = system: Staphylococcus aureus ATCC 6538; assay: Röhrchenverdünnungstest, bacteriostatic activity; type: cell-based; set-up: key: +: Wachstum; -: kein Wachstum; settings: 72 h bei 37 °C
Experimental: as §1

[3] = system: Proteus mirabilis ATCC 14153; assay: Röhrchenverdünnungstest, bacteriostatic activity; type: cell-based; set-up: key: +: Wachstum; -: kein Wachstum; settings: 72 h bei 37 °C
Experimental: as §1

[4] = system: Escherichia coli ATCC 11229; assay: Röhrchenverdünnungstest, bacteriostatic activity; type: cell-based; set-up: key: +: Wachstum; -: kein Wachstum; settings: 72 h bei 37 °C
Experimental: as §1

[5] = system: Enterococcus faecium ATCC 6057; assay: Röhrchenverdünnungstest, bacteriostatic activity; type: cell-based; set-up: key: +: Wachstum; -: kein Wachstum; settings: 72 h bei 37 °C
Experimental: as §1

[6] = system: Pseudomonas aeruginosa ATCC 15442; assay: Röhrchenverdünnungstest, bacteriostatic activity; type: cell-based; set-up: key: +: Wachstum; -: kein Wachstum; settings: 72 h bei 37 °C
Experimental: as §1

[7] = system: Candida albicans ATCC 10231; assay: Quantitative suspension test, fungicidal activity (DGHM guideline); type: cell-based
Description: Methodik: Untersucht wurde ein Gemisch G 1 von 99,4 % MMPP und 0,6 % Decylthiouroniumbromid und ein Gemisch G 2 von 99,7 % MMPP und 0,3 % Decylthiouroniumbromid im Vergleich zu MMPP als Monowirkstoff entsprechend der Richtlinie für die Prüfung und Bewertung chemischer Desinfektionsverfahren der Deutschen Gesellschaft für Hygiene und Mikrobiologie. Testkeim: Candida albicans ATCC 10231 Enthemmer: Tween, Lecithin, Cystein (TLC)

[8] = system: FL-Linie (menschliche Amnionzellen); assay: Cytotoxicity, cell count of monolayer culture after 24 h exposure; type: cell-based, human; settings: for Median der Zellzahl: 24 h
Experimental: Methodik: Die Zytotoxizität wird an der FL-Linie (menschliche Amnionzellen) geprüft. 2-3 Tage nach der Zelleinsaat werden die Zellen, nachdem sie als einschichtige Zellkultur (Monolayer) vorliegen, nach Medienwechsel für 24 h mit der Prüfsubstanz exponiert, danach abgelöst und die Zellzahl in % zur Kontrolle mit dem Zellzähler Universal 87001 (mölab, Hilden) ermittelt.

[9] = system: humanen Amnionepithelzellen; type: cell-based, human
Description: Methodik: Die Untersuchungen wurden an einer Perfusionszellkultur mit humanen Amnionepithelzellen durchgeführt. Der Glucoseverbrauch wurde kontinuierlich von 1 bis 96 Stunden biosensorisch gemessen (Jülich et al., im Druck). Die Prüfsubstanzen wirkten von der 25. bis 48. Stunde ein.

Escherichia coli = assay: Agar incorporation test, bacteriostatic activity; type: cell-based; set-up: key: ⊕⊕: ungehemmtes Wachstum; ⊕: vermindertes Wachstum; -: absolute Hemmung (a. H.); settings: 24 h bei 36 °C
Description: (§2) Methodik: Percarbamid und Dodecylthiouroniumchlorid werden unter städigem Durchmischen bis zur vollständigen Homogenisierung erwärmt. Die Prüfung der Kombination im Vergleich zu den entsprechenden Monowirkstoffen auf bakteriostatische Wirksamkeit erfolgte im Agarinkorporationstest. Die zu untersuchenden Substanzen wurden in Wasser standardisierter Härte gelöst. Die Konzentration der Testsubstanzen im Nähragar wurde in einer geometrischen Reihe auf der Basis 2 abgestuft. Zum Beimpfen der Testplatten wurden die im Beispiel 1 genannten Testkeime 6 h in Caseinpepton-Sojamehlpepton-Lösung bebrütet und so in eine logarithmische Wachstumsphase gebracht. Danach wurden die Agarplatten sternförmig sektorenweise mit jeweils einer ? abgestrichenen Öse beimpft. Der Sektor von Proteus mirabilis wurde durch Gräben abgetrennt, um das Schwärmen zu verhindern. Nach 24 h Bebrütung bei 36 °C erfolgte die Bewertung des Bakterienwachstums unter Vergleich mit substanzfreien Kontrollplatten nach folgendem Schema: ++++ ungehemmtes Wachstum +++ geringe Wachstumshemmung (maximal ¾ des Wachstums der Kontrollen) ++ mäßige Wachstumshemmung (maximal ½ des Wachstums der Kontrollen) + starke Wachstumshemmung (maximal ¼ des Wachstums der Kontrollen) Das sog. ? verminderte Wachstum" (v. W.) umfaßt die Bereiche + bis +++ - absolute Hemmung (a. H.)
(§3) In den Tabellen 5, 6 und 7 bedeuten ⊕⊕ ungehemmtes Wachstum und ⊕ vermindertes Wachstum.

Staphylococcus aureus = assay: Agar incorporation test, bacteriostatic activity; type: cell-based; set-up: key: ⊕⊕: ungehemmtes Wachstum; ⊕: vermindertes Wachstum; -: absolute Hemmung (a. H.); settings: 24 h bei 36 °C
Description: as §2, §3

Proteus mirabilis = assay: Agar incorporation test, bacteriostatic activity; type: cell-based; set-up: key: ⊕⊕: ungehemmtes Wachstum; ⊕: vermindertes Wachstum; -: absolute Hemmung (a. H.); settings: 24 h bei 36 °C
Description: as §2, §3

Enterococcus faecium = assay: Agar incorporation test, bacteriostatic activity; type: cell-based; set-up: key: ⊕⊕: ungehemmtes Wachstum; ⊕: vermindertes Wachstum; -: absolute Hemmung (a. H.); settings: 24 h bei 36 °C
Description: as §2, §3

[10] = system: Sporen von Bacillus subtilis var. niger ATCC 9372; assay: Sporicidal activity on spore test strips; type: cell-based; settings: Monowirkstoff; Einwirkungszeit 3 Tage
Description: Methodik: Kommerzielle Teststreifen mit 10^6 Sporen von Bacillus subtilis var. niger ATCC 9372 (BAG-Bio Strips, Biologische Analysensystem GmbH Lich) wurden für 3 Tage in eine Lösung der Prüfsubstanz eingelegt. Danach wurden die Teststreifen in eine Nährlösung überführt und 7 Tage bebrütet.

Pseudomonas aeruginosa = assay: Agar incorporation test, bacteriostatic activity; type: cell-based; set-up: key to Bakteriostatische Wirksamkeit (Wachstum): ⊕⊕: ungehemmtes Wachstum; ⊕: vermindertes Wachstum; -: absolute Hemmung (a. H.); settings: for Bakteriostatische Wirksamkeit (Wachstum): 24 h bei 36 °C
Description: as §2, §3

[11] = Konzentration in Wasser 0,0015 %
[12] = Konzentration in Wasser 0,003 %
[13] = Konzentration in Wasser 0,006 %
[14] = Konzentration in Wasser 0,012 %
[15] = Konzentration in Wasser 0,025 %

O=C(O)c1ccccc1C(=O)OO [MMPP, Magnesiummonoperphthalat]
Wachstum des Testkeims (Minimale Hemmkonzentrationen) ([1]; geprüfte Konzentration 0,85%): -
Wachstum des Testkeims (Minimale Hemmkonzentrationen) ([1]; geprüfte Konzentration 0,425%): +
Wachstum des Testkeims (Minimale Hemmkonzentrationen) ([2]; geprüfte Konzentration 0,5%): +
Wachstum des Testkeims (Minimale Hemmkonzentrationen) ([2]; geprüfte Konzentration 0,6%): -
Wachstum des Testkeims (Minimale Hemmkonzentrationen) ([2]; geprüfte Konzentration 0,85%): -
Wachstum des Testkeims (Minimale Hemmkonzentrationen) ([2]; geprüfte Konzentration 0,425%): +
Wachstum des Testkeims (Minimale Hemmkonzentrationen) ([3]; geprüfte Konzentration 0,85%): -
Wachstum des Testkeims (Minimale Hemmkonzentrationen) ([3]; geprüfte Konzentration 0,425%): +
Wachstum des Testkeims (Minimale Hemmkonzentrationen) ([4]; geprüfte Konzentration 0,85%): -
Wachstum des Testkeims (Minimale Hemmkonzentrationen) ([4]; geprüfte Konzentration 0,425%): -
Wachstum des Testkeims (Minimale Hemmkonzentrationen) ([5]; geprüfte Konzentration 0,85%): -
Wachstum des Testkeims (Minimale Hemmkonzentrationen) ([5]; geprüfte Konzentration 0,425%): +
Wachstum des Testkeims (Minimale Hemmkonzentrationen) ([6]; geprüfte Konzentration 0,85%): -
Wachstum des Testkeims (Minimale Hemmkonzentrationen) ([6]; geprüfte Konzentration 0,425%): -
log reduction at 0.5 % ([7]; ATCC10231, 5 min, 0,5 %, x = 5, read-out: log. Reduktionsfaktoren bei einer Einwirkungszeit von x min): 0.55
log reduction at 0.6 % ([7]; ATCC10231, 5 min, 0,6 %, x = 5, read-out: log. Reduktionsfaktoren bei einer Einwirkungszeit von x min): 0.83
log reduction at 0.425 % ([7]; ATCC10231, 5 min, 0,425 %, x = 5, read-out: log. Reduktionsfaktoren bei einer Einwirkungszeit von x min): 1
log reduction at 0.5 % ([7]; ATCC10231, 0.25 h, 0,5 %, x = 15, read-out: log. Reduktionsfaktoren bei einer Einwirkungszeit von x min): 0.88
log reduction at 0.6 % ([7]; ATCC10231, 0.25 h, 0,6 %, x = 15, read-out: log. Reduktionsfaktoren bei einer Einwirkungszeit von x min): 0.91
log reduction at 0.425 % ([7]; ATCC10231, 0.25 h, 0,425 %, x = 15, read-out: log. Reduktionsfaktoren bei einer Einwirkungszeit von x min): 1.5
log reduction at 0.5 % ([7]; ATCC10231, 0.5 h, 0,5 %, x = 30, read-out: log. Reduktionsfaktoren bei einer Einwirkungszeit von x min): 1.28
log reduction at 0.6 % ([7]; ATCC10231, 0.5 h, 0,6 %, x = 30, read-out: log. Reduktionsfaktoren bei einer Einwirkungszeit von x min): 1.7
log reduction at 0.425 % ([7]; ATCC10231, 0.5 h, 0,425 %, x = 30, read-out: log. Reduktionsfaktoren bei einer Einwirkungszeit von x min): 3.6

Wasserstoffperoxid
Zellwachstum [8]: vollständigen Inhibierung des Zellwachstums
Median der Zellzahl ([8]; Prüfkonzentration 0,001 %): 17,9 % der Kontrolle
Median der Zellzahl ([8]; Prüfkonzentration 0,0015 %): 7,3 % der Kontrolle
Glucosestoffwechsel der FL-Zellen [9]: signifikante, aber reversible Verminderung
Bakteriostatische Wirksamkeit (Wachstum) (Escherichia coli; Konzentration in Wasser 0,1 %): -
Bakteriostatische Wirksamkeit (Wachstum) (Escherichia coli; Konzentration in Wasser 0,2 %): -
Bakteriostatische Wirksamkeit (Wachstum) (Escherichia coli; Konzentration in Wasser 0,4 %): -
Bakteriostatische Wirksamkeit (Wachstum) (Escherichia coli; Konzentration in Wasser 0,05 %): -
Bakteriostatische Wirksamkeit (Wachstum) (Escherichia coli; Konzentration in Wasser 0,8 %): -
Bakteriostatische Wirksamkeit (Wachstum) (Escherichia coli; [11]): ⊕⊕
Bakteriostatische Wirksamkeit (Wachstum) (Escherichia coli; [12]): ⊕⊕
Bakteriostatische Wirksamkeit (Wachstum) (Escherichia coli; [13]): ⊕⊕
Bakteriostatische Wirksamkeit (Wachstum) (Escherichia coli; [14]): -
Bakteriostatische Wirksamkeit (Wachstum) (Escherichia coli; [15]): -
Bakteriostatische Wirksamkeit (Wachstum) (Staphylococcus aureus; Konzentration in Wasser 0,1 %): -
Bakteriostatische Wirksamkeit (Wachstum) (Staphylococcus aureus; Konzentration in Wasser 0,2 %): -
Bakteriostatische Wirksamkeit (Wachstum) (Staphylococcus aureus; Konzentration in Wasser 0,4 %): -
Bakteriostatische Wirksamkeit (Wachstum) (Staphylococcus aureus; Konzentration in Wasser 0,05 %): -
Bakteriostatische Wirksamkeit (Wachstum) (Staphylococcus aureus; Konzentration in Wasser 0,8 %): -
Bakteriostatische Wirksamkeit (Wachstum) (Staphylococcus aureus; [11]): ⊕⊕
Bakteriostatische Wirksamkeit (Wachstum) (Staphylococcus aureus; [12]): ⊕⊕
Bakteriostatische Wirksamkeit (Wachstum) (Staphylococcus aureus; [13]): ⊕⊕
Bakteriostatische Wirksamkeit (Wachstum) (Staphylococcus aureus; [14]): -
Bakteriostatische Wirksamkeit (Wachstum) (Staphylococcus aureus; [15]): -
Bakteriostatische Wirksamkeit (Wachstum) (Proteus mirabilis; Konzentration in Wasser 0,1 %): -
Bakteriostatische Wirksamkeit (Wachstum) (Proteus mirabilis; Konzentration in Wasser 0,2 %): -
Bakteriostatische Wirksamkeit (Wachstum) (Proteus mirabilis; Konzentration in Wasser 0,4 %): -
Bakteriostatische Wirksamkeit (Wachstum) (Proteus mirabilis; Konzentration in Wasser 0,05 %): -
Bakteriostatische Wirksamkeit (Wachstum) (Proteus mirabilis; Konzentration in Wasser 0,8 %): -
Bakteriostatische Wirksamkeit (Wachstum) (Proteus mirabilis; [11]): ⊕⊕
Bakteriostatische Wirksamkeit (Wachstum) (Proteus mirabilis; [12]): ⊕⊕
Bakteriostatische Wirksamkeit (Wachstum) (Proteus mirabilis; [13]): ⊕⊕
Bakteriostatische Wirksamkeit (Wachstum) (Proteus mirabilis; [14]): -
Bakteriostatische Wirksamkeit (Wachstum) (Proteus mirabilis; [15]): -
Bakteriostatische Wirksamkeit (Wachstum) (Enterococcus faecium; Konzentration in Wasser 0,1 %): -
Bakteriostatische Wirksamkeit (Wachstum) (Enterococcus faecium; Konzentration in Wasser 0,2 %): -
Bakteriostatische Wirksamkeit (Wachstum) (Enterococcus faecium; Konzentration in Wasser 0,4 %): -
Bakteriostatische Wirksamkeit (Wachstum) (Enterococcus faecium; Konzentration in Wasser 0,05 %): -
Bakteriostatische Wirksamkeit (Wachstum) (Enterococcus faecium; Konzentration in Wasser 0,8 %): -
Bakteriostatische Wirksamkeit (Wachstum) (Enterococcus faecium; [11]): ⊕⊕
Bakteriostatische Wirksamkeit (Wachstum) (Enterococcus faecium; [12]): ⊕⊕
Bakteriostatische Wirksamkeit (Wachstum) (Enterococcus faecium; [13]): ⊕
Bakteriostatische Wirksamkeit (Wachstum) (Enterococcus faecium; [14]): -
Bakteriostatische Wirksamkeit (Wachstum) (Enterococcus faecium; [15]): -
Konzentration erforderlich zur Erreichung dieses Effektes (Reduktion der Sporen von 6 log-Stufen) [10]: 0,6%
Bakteriostatische Wirksamkeit (Wachstum) (Pseudomonas aeruginosa; Konzentration in Wasser 0,1 %): -
Bakteriostatische Wirksamkeit (Wachstum) (Pseudomonas aeruginosa; Konzentration in Wasser 0,2 %): -
Bakteriostatische Wirksamkeit (Wachstum) (Pseudomonas aeruginosa; Konzentration in Wasser 0,4 %): -
Bakteriostatische Wirksamkeit (Wachstum) (Pseudomonas aeruginosa; Konzentration in Wasser 0,05 %): -
Bakteriostatische Wirksamkeit (Wachstum) (Pseudomonas aeruginosa; Konzentration in Wasser 0,8 %): -
Bakteriostatische Wirksamkeit (Wachstum) (Pseudomonas aeruginosa; [11]): ⊕⊕
Bakteriostatische Wirksamkeit (Wachstum) (Pseudomonas aeruginosa; [12]): ⊕⊕
Bakteriostatische Wirksamkeit (Wachstum) (Pseudomonas aeruginosa; [13]): ⊕⊕
Bakteriostatische Wirksamkeit (Wachstum) (Pseudomonas aeruginosa; [14]): ⊕⊕
Bakteriostatische Wirksamkeit (Wachstum) (Pseudomonas aeruginosa; [15]): ⊕⊕
Konzentration, durch die Pseudomonas aeruginosa gehemmt wird (minimale Hemmkonzentration) (Pseudomonas aeruginosa; single substance, resistentester Testkeim): 0,05%
